In patent US9938292B2 (GUANGDONG ZHONGSHENG PHARMACEUTICAL CO., LTD, priority 2014, dated 2018):

system: Hedgehog signaling pathway; experiment: Gli-Luc luciferase reporter gene assay in C3H10T1/2/Gli-Luc cells under Shh-N stimulation; format: cell-based; conditions: 24 h, luciferase RLU, read-out: biological activity: IC50 of the inhibitory activities of compounds on the hedgehog pathway
In short: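 C3H10T1/2 cells stably carrying a Gli-responsive luciferase reporter were stimulated with 30 nM Shh-N conditioned medium plus compound (7-point dilutions, duplicate) for 24 h at 37 °C. Luciferase luminescence read from lysates; IC50 by sigmoidal fit of RLU versus log concentration.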

IC50 | SMILES
≤ 50 nM | CCC(=O)N1[C@H](C)CN(c2ccc(NC(=O)c3cnc4c(-c5ccc(C#N)cc5)cccc4c3C3CC3)cn2)C[C@@H]1C [Embodiment 246]

same assay, conditions: Mus musculus, C3H 10T1/2, 24 h, luciferase RLU, read-out: biological activity: IC50 of the inhibitory activities of compounds on the hedgehog pathway

SMILES | IC50
COc1c(N2CCN(c3ccc(C(C)(C)O)c(C(F)(F)F)n3)CC2)cnc2c(-c3ccc(C#N)cc3)cccc12 [Embodiment 222] | ≤ 50 nM
COc1c(N2CCN(c3ncc(C(C)(C)O)cc3C(F)(F)F)CC2)cnc2c(-c3ccc(C#N)cc3)cccc12 [Embodiment 223] | 100 to 500 nM
CC(C)(O)c1ccc(N2CCN(c3cnc4c(-c5ccc(C#N)cc5)cccc4c3C3CC3)CC2)nc1 [Embodiment 224] | ≤ 50 nM
COc1c(N2CCN(c3cnc(C(C)(C)O)cn3)C(C)C2)cnc2c(-c3ccc(C#N)cc3)cccc12 (centres unmarked) [Embodiment 225] | ≤ 50 nM
COc1c(N2CCN(c3ccc(C(C)(C)O)cn3)C(C)C2)cnc2c(-c3ccc(C#N)cc3)cccc12 (centres unmarked) [Embodiment 226] | ≤ 50 nM
COc1c(N2CCC(N3C[C@@H](C)O[C@@H](C)C3)CC2)cnc2c(-c3ccc(C#N)cc3)cccc12 [Embodiment 227, 4-(3-(4-(2,6-dimethylmorpholino)piperidin-1-yl)-4-methoxyquinolin-8-yl) benzonitrile] | ≤ 50 nM
COc1c(N2CC(N3C[C@@H](C)O[C@@H](C)C3)C2)cnc2c(-c3ccc(C#N)cc3)cccc12 [Embodiment 228, 4-(3-(3-(2,6-dimethylmorpholino-4-yl)azetidin-1-yl)-4-methoxyquinolin-8-yl) benzonitrile] | 100 to 500 nM
COc1c(N2CCC(N3C[C@@H](C)O[C@@H](C)C3)C2)cnc2c(-c3ccc(C#N)cc3)cccc12 (some centres unmarked) [Embodiment 229, 4-(3-(3-(2,6-dimethylmorpholino)pyrrolidin-1-yl)-4-methoxyquinolin-8-yl) benzonitrile] | 100 to 500 nM
COc1c(N2C3CCC2CC(N2C[C@@H](C)O[C@@H](C)C2)C3)cnc2c(-c3ccc(C#N)cc3)cccc12 (some centres unmarked) [Embodiment 230, 4-(3-(3-(2,6-dimethylmorpholino-4-yl)-8-azabicyclo[3.2.1]octan-8-yl)-4-methoxyquinolin-8-yl)benzonitrile] | 100 to 500 nM
COc1c(N2CCC(O)(c3cc(C)cc(C)n3)CC2)cnc2c(-c3ccc(C#N)cc3)cccc12 [Embodiment 231, 4-(3-(4′-hydroxy-4,6-dimethyl-3′,4′,5′,6′-tetrahydro-2′H-[2,4′]bipyridyl-1′-yl)-4-methoxyquinolin-8-yl) benzonitrile] | ≤ 50 nM
COc1c(C2CCC(N3C[C@@H](C)O[C@@H](C)C3)CC2)cnc2c(-c3ccc(C#N)cc3)cccc12 (some centres unmarked) [Embodiment 232, 4-(3-(4-(2,6-dimethylmorpholino-4-yl)cyclohexyl)-4-methoxyquinolin-8-yl) benzonitrile] | 100 to 500 nM
COc1c(N2CC[C@@H](N3C[C@@H](C)O[C@@H](C)C3)[C@@H](F)C2)cnc2c(-c3ccc(C#N)cc3)cccc12 [Embodiment 233, 4-(3-(4-(2,6-dimethylmorpholino-4-yl)-3-fluoropiperidin-1-yl)-4-methoxyquinolin-8-yl)benzonitrile] | ≤ 50 nM
COc1c(N2CCC(N3CC(C)OC(C)C3=O)CC2)cnc2c(-c3ccc(C#N)cc3)cccc12 (centres unmarked) [Embodiment 235, 4-(3-(4-(2,6-dimethyl-3-oxo-morpholino-4-yl)piperidin-1-yl)-4-methoxyquinolin-8-yl) benzonitrile] | ≤ 50 nM
CC(C)(O)c1ccc(N2CCN(c3cnc4c(-c5ccc(C#N)cc5)cccc4c3C3CC3)CC2=O)nc1 [Embodiment 236, 4-(4-cyclopropyl-3-(4-(5-(1-hydroxy-1-methyl-ethyl)pyridin-2-yl)-3-oxo-piperazin-1-yl)quinolin-8-yl)benzonitrile] | ≤ 50 nM
CC(C)(O)c1ccc(N2CCN(c3cnc4c(-c5ccc(C#N)cc5)cccc4c3C3CC3)CC2(C)O)nc1 (centres unmarked) [Embodiment 237, 4-(4-cyclopropyl-3-(3-hydroxy-4-(5-(1-hydroxy-1-methyl-ethyl)pyridin-2-yl)-3-methylpiperazin-1-yl)quinolin-8-yl)benzonitrile] | 100 to 500 nM
COc1c(N2CCC(O)(c3ccc(C(C)(C)O)cn3)CC2)cnc2c(-c3ccc(C#N)cc3)cccc12 [Embodiment 238, 4-(3-(4-hydroxy-4-(5-(2-hydroxypropan-2-yl)pyridin-2-yl)piperidin-1-yl)-4-methoxyquinolin-8-yl)benzonitrile] | ≤ 50 nM
C[C@@H]1CN(c2ccc(-c3cnc4c(-c5ccc(C#N)cc5)cccc4c3C3CC3)c(C(=O)O)n2)C[C@H](C)O1 [Embodiment 239, 3-(8-(4-cyanophenyl)-4-cyclopropylquinolin-3-yl)-6-(2,6-dimethylmorpholino-4-yl)pyridin-2-carboxylic acid] | 100 to 500 nM
COc1c(C2(O)CCN(c3ccc(C(C)(C)O)cn3)CC2)cnc2c(-c3ccc(C#N)cc3)cccc12 [Embodiment 240, 4-(3-(4-hydroxy-5′-(1-hydroxy-1-methyl-ethyl)-3,4,5,6-tetrahydro-2H-[1,2′]bipyridyl-4-yl)4-methoxyquinolin-8-yl)benzonitrile] | 100 to 500 nM
COc1c(NC(=O)c2ccc(N3C[C@@H](C)O[C@@H](C)C3)nc2)cnc2c(-c3ccc(C#N)cc3)cccc12 [Embodiment 241, N-(8-(4-cyanophenyl)-4-methoxyquinolin-3-yl)-6-(2,6-dimethylmorpholino-4-yl) nicotinamide] | 100 to 500 nM
COc1c(C(=O)Nc2ccc(N3C[C@@H](C)O[C@@H](C)C3)cc2)cnc2c(-c3ccc(C#N)cc3)cccc12 [Embodiment 242, 8-(4-cyanophenyl)-N-(4-((2S,6R)-2,6-dimethylmorpholino)phenyl)-4-methoxyquinoline-3-carboxamide] | ≤ 50 nM

Continued, values first:

IC50 | SMILES
≤ 50 nM | COc1c(C(=O)Nc2ccc(N3C[C@@H](C)O[C@@H](C)C3)nc2)cnc2c(-c3ccc(C#N)cc3)cccc12 [Embodiment 243, 8-(4-cyanophenyl)-N-(6-((2S,6R)-2,6-dimethylmorpholino)pyridin-3-yl)-4-methoxyquinoline-3-carboxamide]
≤ 50 nM | C[C@@H]1CN(c2ccc(NC(=O)c3cnc4c(-c5ccc(C#N)cc5)cccc4c3C3CC3)cn2)C[C@H](C)O1 [Embodiment 244, 8-(4-cyanophenyl)-4-cyclopropyl-N-(6-((2S,6R)-2,6-dimethylmorpholino)pyridin-3-yl) quinoline-3-carboxamide]
100 to 500 nM | CCC(=O)N1[C@H](C)CN(c2ccc(NC(=O)c3cnc4c(-c5ccc(C#N)cc5)cccc4c3OC)cn2)C[C@@H]1C [Embodiment 245, 8-(4-cyanophenyl)-N-(6-((3S,5R)-3,5-dimethyl-4-propionylpiperazin-1-yl)pyridin-3-yl)-4-methoxyquinoline-3-carboxamide]
100 to 500 nM | COc1c(N2CCn3c(nnc3C(F)(F)F)C2)cnc2c(-c3ccc(C#N)cc3)cccc12 [Embodiment 247, 4-(4-methoxy-3-(3-trifluoromethyl-5,6-dihydro-8H-[1,2,4]triazolo[4,3-a]pyrazin-7-yl)quinolin-8-yl)benzonitrile]
≤ 50 nM | COc1c(N2CCN(C(=O)C3CC3)CC2)cnc2c(-c3ccc(C#N)cc3)cccc12 [Embodiment 248, 4-(3-(4-cyclopropanecarbonylpiperazin-1-yl)-4-methoxyquinolin-8-yl)benzonitrile]
≤ 50 nM | COc1c(N2CCN(S(=O)(=O)C(C)C)CC2)cnc2c(-c3ccc(C#N)cc3)cccc12 [Embodiment 249, 4-(4-methoxy-3-(4-(propane-2-sulfonyl)piperazin-1-yl)-quinolin-8-yl)benzonitrile]
100 to 500 nM | CCC(=O)N1[C@H](C)CN(c2ccc(-c3nc4c(-c5ccc(C#N)cc5)cccc4[nH]3)cn2)C[C@@H]1C [Embodiment 250, 4-(2-(6-(3,5-dimethyl-4-propionylpiperazin-1-yl)pyridin-3-yl)-1H-benzo[d]imidazol-4-yl)benzonitrile]
≤ 50 nM | COc1c(-c2ccc(N3CC(C)(C)C(O)C(C)(C)C3)cc2)cnc2c(-c3ccc(C#N)cc3)cccc12 [Embodiment 251]
100 to 500 nM | COc1c(N2CCN(c3ccc(C(C)(C)O)cn3)CC2=O)cnc2c(-c3ccc(C#N)cc3)cccc12 [Embodiment 252, 4-(3-(4-(5-(2-hydroxypropan-2-yl)pyridin-2-yl)-2-oxopiperazin-1-yl-4-methoxyquinolin-8-yl))benzonitrile]
100 to 500 nM | COc1c(N2CCN(c3ccc(C(C)(C)O)cn3)C(=O)C2)cnc2c(-c3ccc(C#N)cc3)cccc12 [Embodiment 253, 4-(3-(4-(5-(2-hydroxypropan-2-yl)pyridin-2-yl)-3-oxopiperazin-1-yl-4-methoxyquinolin-8-yl))benzonitrile]
≤ 50 nM | CC(C)(O)c1ccc(N2CCN(c3cnc4c(-c5ccc(C#N)cc5)cccc4c3C3CC3)C(=O)C2)nc1 [Embodiment 254, 4-(4-cyclopropyl-3-(4-(5-(2-hydroxypropan-2-yl)pyridin-2-yl)-2-oxopiperazin-1-yl)quinolin-8-yl)benzonitrile]
100 to 500 nM | CC(C)(O)c1ccc(N2CC3(C2)CN(c2cnc4c(-c5ccc(C#N)cc5)cccc4c2C2CC2)C3)nc1 [Embodiment 255, 4-(4-cyclopropyl-3-(6-(5-(2-hydroxypropan-2-yl)pyridin-2-yl)-2,6-diazaspiro[3.3]heptan-2-yl)quinolin-8-yl)benzonitrile]
100 to 500 nM | CC(C)(O)c1ccc(N2CCC3(CC2)CCN(c2cnc4c(-c5ccc(C#N)cc5)cccc4c2C2CC2)CC3)nc1 [Embodiment 256, 4-(4-cyclopropyl-3-(9-(5-(2-hydroxypropan-2-yl)pyridin-2-yl)-3,9-diazaspiro[5.5]undecan-3-yl)quinolin-8-yl)benzonitrile]
≤ 50 nM | Cc1nc(N2C[C@@H](C)O[C@@H](C)C2)ccc1-c1cnc2c(-c3ccc(C#N)cc3)cccc2c1C1CC1 [Embodiment 257, 4-(4-cyclopropyl-3-(6-((2S,6R)-2,6-dimethylmorpholino)-2-methylpyridin-3-yl)quinolin-8-yl)benzonitrile]
